Assay results: PubChem BioAssay (NCI)
Where “and” joins values, the source holds several entries; their conditions need not be identical. Identical values can stand only once.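 Interpolation was linear, between the two tested concentrations surrounding the appropriate level; five concentrations were tested over 48 hours in 96-well plates. At the GI50, growth is halved. TGI: concentration producing complete growth inhibition.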

What was measured:
Experiment in all cases: inhibition of tumour cell growth, NCI panel, 48 h
786-0 renal = tested on: 786-0 renal
COLO 205 colon = tested on: COLO 205 colon
HOP-92 NSCLC = tested on: HOP-92 NSCLC
MCF7 breast = tested on: MCF7 breast
OVCAR-5 ovarian = tested on: OVCAR-5 ovarian
SK-MEL-5 melanoma = tested on: SK-MEL-5 melanoma
UACC-62 melanoma = tested on: UACC-62 melanoma
RPMI-8226 leukemia = tested on: RPMI-8226 leukemia

Row | SMILES | GI50 (786-0 renal) | TGI (786-0 renal) | GI50 (COLO 205 colon) | TGI (COLO 205 colon) | GI50 (HOP-92 NSCLC) | TGI (HOP-92 NSCLC) | GI50 (MCF7 breast) | TGI (MCF7 breast) | GI50 (OVCAR-5 ovarian) [µM] | TGI (OVCAR-5 ovarian) [µM] | GI50 (SK-MEL-5 melanoma) | TGI (SK-MEL-5 melanoma) | GI50 (UACC-62 melanoma) | TGI (UACC-62 melanoma) | GI50 (RPMI-8226 leukemia) | TGI (RPMI-8226 leukemia)
1 | COC1=CC(c2ccc[nH]2)=N/C1=C\c1[nH]c(C)c(C(=O)CCC(=O)Oc2ccc3c(c2)CCC2C3CC[C@]3(C)[C@@H](O)CC[C@@H]23)c1C (stereo partly specified) | 2.04 µM | 4.35 µM | 5.15 µM | > 100 µM | 1450 nM | 4.39 µM | 917 nM | > 100 µM | 5.47 | > 100 | 1.46 µM | 2.91 µM | 1.7 µM | 4.62 µM | – | –
2 | C[C@H](c1ccc(F)cc1CCCC(=O)O)N(c1cc(F)ccc1F)S(=O)(=O)c1ccc(Cl)cc1 | 31.2 µM | > 100 µM | 33.7 µM | > 92.9 µM | 17900 nM | > 82.5 µM | 31200 nM | > 100 µM | 43.8 | > 100 | 17.5 µM | 38 µM | 14.2 µM | 39.2 µM | 30 µM | > 88.5 µM
3 | OCc1ccc(-c2csc(-c3ccc(CO)o3)c2)o1 | 69.5 µM | > 100 µM | 4.36 µM | > 56 µM | 20400 nM | 86.4 µM | 752 nM | > 95 µM | 0.199 | 1.52 | 17.5 µM | 41.5 µM | 0.767 µM | 33.7 µM | 28.3 µM | > 100 µM
4 | CC#C[C@]1(O)CCC2[C@@H]3CCC4=CC(=O)CCC4=C3[C@@H](c3ccc(N(C)C)cc3)C[C@@]21C (stereo partly specified) | – | 37.2 µM | – | 24.1 µM | – | 8.55 µM | – | 20.8 µM | – | 79.1 | – | 24.6 µM | – | 18.6 µM | – | 7.15 µM
5 | O=C(Cn1c(C(=O)c2ccc(Cl)cc2)nc(-c2ccc(Cl)cc2)c1-c1ccc(Cl)cc1)c1ccccc1 | > 100 µM | > 100 µM | > 100 µM | > 100 µM | 12900 nM | > 100 µM | > 100000 nM | > 100 µM | > 100 | > 100 | > 100 µM | > 100 µM | > 100 µM | > 100 µM | > 100 µM | > 100 µM
6 | Cc1ccccc1C1=C(c2cn(C)c3ccccc23)C(=O)NC1=O | > 25 µM | > 25 µM | 9.01 µM | > 25 µM | > 25000 nM | > 25 µM | 9200 nM | > 25 µM | > 23.6 | > 25 | 16 µM | > 25 µM | > 20.5 µM | > 25 µM | 20 µM | > 25 µM
7 | COc1cc2c3c(n(CCCN(CCCN(CCCn4c5c(c6ccccc6c4=O)C(=O)c4ccccc4-5)C(=O)OC(C)(C)C)C(=O)OC(C)(C)C)c(=O)c2cc1OC)-c1cc2c(cc1C3=O)OCO2 | > 100 µM | > 100 µM | > 100 µM | > 100 µM | > 100000 nM | > 100 µM | – | – | – | – | > 100 µM | > 100 µM | > 100 µM | > 100 µM | > 100 µM | > 100 µM
8 | O=C(c1ccccc1)C(Cl)C(Cl)c1ccccc1 (stereo unspecified) | 1.79 µM | 3.52 µM | 2.06 µM | 4.26 µM | 2310 nM | 6.99 µM | 1000 nM | 10.3 µM | 5.48 | 20.9 | 2.93 µM | 10.7 µM | 1.69 µM | 3.69 µM | 2.27 µM | 7.08 µM
9 | COc1ccc(/C=C/C(=O)c2c(O)ccc3c(C)c(C(=O)O)oc23)cc1 | 90.3 µM | > 100 µM | 63.4 µM | > 100 µM | – | – | 28100 nM | > 100 µM | > 100 | > 100 | 46.4 µM | > 100 µM | 55 µM | > 100 µM | – | –
10 | CCCCCCCCCCCCCC[n+]1ccccc1 | 1.04 µM | 2.42 µM | 0.614 µM | 2.12 µM | 144 nM | 0.841 µM | 489 nM | 2.66 µM | 0.733 | 2.35 | 0.369 µM | 1.43 µM | 0.96 µM | 2.34 µM | 0.303 µM | 1.33 µM
11 | O=Cc1cccc2ccc3ccccc3c12 | – | 53.5 µM | – | 37.5 µM | – | – | – | 37.4 µM | – | – | – | 39.6 µM | – | 76 µM | – | –
12 | O=C(CN1CCCC1=O)CS(=O)(=O)c1ccccc1 | – | > 100 µM | – | > 100 µM | – | – | – | > 100 µM | – | > 100 | – | > 100 µM | – | > 100 µM | – | > 100 µM
13 | CS(=O)(=O)CCNCc1ccc(-c2ccc3ncnc(Nc4ccc(OCc5cccc(F)c5)c(Cl)c4)c3c2)o1 | > 10 µM and 4.43 µM and 5.46 µM | > 10 µM and > 42.3 µM and 29.2 µM | > 10 µM and > 78.8 µM and 10.3 µM | > 10 µM and > 100 µM and 33.3 µM | 2170 nM and 18600 nM and 2030 nM | > 10 µM and > 100 µM and 14.4 µM | 7660 nM and 2180 nM and 2110 nM | > 10 µM and 9.12 µM and 6.69 µM | – | – | 3.21 µM and 4.34 µM | 22.9 µM and 15.4 µM | > 10 µM and 6.68 µM and 9.22 µM | > 10 µM and > 100 µM and 23.1 µM | 3.54 µM and 2.82 µM and 1.58 µM | > 10 µM and > 29.4 µM and 7.05 µM
14 | COc1cc(OC)cc(Oc2cnc3cc(N)cc(N)c3n2)c1 | 15.2 µM | 29 µM | 14 µM | 37.5 µM | – | – | 20500 nM | 49.3 µM | 15.5 | 30.4 | 15.3 µM | 29.3 µM | 14.4 µM | 27.8 µM | 24 µM | 53.7 µM
15 | CCc1ccccc1NC(=O)C(C#N)C1=C(Cl)C(=O)c2ccccc2C1=O (stereo unspecified) | – | 31.4 µM | – | 31.1 µM | – | > 100 µM | – | 57 µM | – | 35.2 | – | 29.6 µM | – | 31.2 µM | – | 77.9 µM
16 | CN1CC=C(c2cc(NC(=O)Nc3ccc(Oc4ccnc(NC(=O)C5CC5)c4)c(F)c3)cc(C(F)(F)F)c2)CC1 | 0.232 µM | 0.908 µM | – | – | 1550 nM | 3.58 µM | 153 nM | 0.693 µM | 0.289 | 2.44 | 0.853 µM | 1.59 µM | 1.1 µM | 2.25 µM | – | –
17 | COc1cc(-c2cc3ncccc3c3nc(OCCN(C)C)c4cccnc4c23)cc(OC)c1OC | 0.318 µM | 1.16 µM | – | – | 1100 nM | 3.2 µM | 389 nM | 14.8 µM | 1.34 | 3.68 | 0.468 µM | 1.96 µM | 0.42 µM | 2.45 µM | 0.372 µM | 2.79 µM
